Reference: ChEMBL document CHEMBL1201862, “PubChem BioAssay data set” (2004)
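Test compounds were applied to cells in 96-well plates for 48 hours at 5 doses. GI50: concentration for 50% inhibition of growth.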 The source made the active and inactive calls. No stated cut-off is given here; in the data, active = GI50 up to about 1.1 µM and inactive = higher.

What was measured:
Experiment in all cases: growth of human tumour cells (NCI), 48 h
[1] = system: UACC-62
[2] = system: EKVX
[3] = system: A498
[4] = system: TK-10
[5] = system: U-251
[6] = system: LOX IMVI
[7] = system: HOP-62
[8] = system: SN12C
[9] = system: Malme-3M
[10] = system: SF-539
[11] = system: M14
[12] = system: DU-145
[13] = system: Hs-578T
[14] = system: SK-OV-3
[15] = system: 786-0
[16] = system: IGROV-1
[17] = system: SF-268
[18] = system: HOP-92

| Compound | GI50 [1] | GI50 [2] | GI50 [3] | GI50 [4] | GI50 [5] | GI50 [6] | GI50 [7] | GI50 [8] | GI50 [9] | GI50 [10] | GI50 [11] | GI50 [12] | GI50 [13] | GI50 [14] | GI50 [15] | GI50 [16] | GI50 [17] | GI50 [18] |
| --- | --- | --- | --- | --- | --- | --- | --- | --- | --- | --- | --- | --- | --- | --- | --- | --- | --- | --- |
| CC/C(Cl)=N\OC(=O)Nc1ccccc1OC(F)(F)F | 17 µM (inactive) | 7 µM (inactive) | 19.6 µM (inactive) | 11.6 µM (inactive) | 26.4 µM (inactive) | 2.34 µM (inactive) | 19 µM (inactive) | 7.05 µM (inactive) | 4.52 µM (inactive) | 12.4 µM (inactive) | 6.9 µM (inactive) | 18.7 µM (inactive) | 30.2 µM (inactive) | 20.2 µM (inactive) | 10.1 µM (inactive) | 15.8 µM (inactive) | 25.2 µM (inactive) | 2.39 µM (inactive) |
| Cc1ccc(-c2n[nH]c(CC#N)n2)cc1 | > 100 µM (inactive) | 8.57 µM (inactive) | > 100 µM (inactive) | > 100 µM (inactive) | > 100 µM (inactive) | > 100 µM (inactive) | > 100 µM (inactive) | > 100 µM (inactive) | > 100 µM (inactive) | > 100 µM (inactive) | > 100 µM (inactive) | > 100 µM (inactive) | 39.7 µM (inactive) | > 100 µM (inactive) | > 100 µM (inactive) | > 100 µM (inactive) | > 100 µM (inactive) | > 100 µM (inactive) |
| COc1ccc(/C(Cl)=C(\CNc2ccccn2)c2ccccc2)cc1OC | > 100 µM (inactive) | > 100 µM (inactive) | > 100 µM (inactive) | > 100 µM (inactive) | > 100 µM (inactive) | > 100 µM (inactive) | > 100 µM (inactive) | > 100 µM (inactive) | > 100 µM (inactive) | > 100 µM (inactive) |  | > 100 µM (inactive) | > 100 µM (inactive) | > 100 µM (inactive) | > 100 µM (inactive) | > 100 µM (inactive) | > 100 µM (inactive) | > 100 µM (inactive) |
| COC(=O)c1ccccc1/C=C1\Cc2ccc3c(c2C1=O)CCC3 | > 100 µM (inactive) | > 100 µM (inactive) | > 100 µM (inactive) | > 100 µM (inactive) | > 100 µM (inactive) | > 100 µM (inactive) | > 100 µM (inactive) | > 100 µM (inactive) | > 100 µM (inactive) | > 100 µM (inactive) |  | > 100 µM (inactive) | > 100 µM (inactive) | > 100 µM (inactive) | > 100 µM (inactive) | > 100 µM (inactive) | > 100 µM (inactive) | > 100 µM (inactive) |
| N=c1c2sc3nc4ccccc4n3c2ncn1Cc1ccccc1 | > 100 µM (inactive) | > 100 µM (inactive) | > 100 µM (inactive) | 84.3 µM (inactive) | > 100 µM (inactive) | > 100 µM (inactive) | > 100 µM (inactive) |  | > 100 µM (inactive) | > 100 µM (inactive) | > 100 µM (inactive) | > 100 µM (inactive) | > 100 µM (inactive) | > 100 µM (inactive) | > 100 µM (inactive) | > 100 µM (inactive) | > 100 µM (inactive) | > 100 µM (inactive) |
| CSCSSC | 61.7 µM (inactive) | > 100 µM (inactive) | 0.0231 µM (active) | > 100 µM (inactive) |  | 17.7 µM (inactive) | > 100 µM (inactive) | > 100 µM (inactive) | 77.1 µM (inactive) | > 100 µM (inactive) | > 100 µM (inactive) | > 100 µM (inactive) | > 100 µM (inactive) | 74.6 µM (inactive) | > 100 µM (inactive) | > 79.6 µM (inactive) | > 100 µM (inactive) | > 75.5 µM (inactive) |
| CC(=O)OCCn1c(Cc2ccc([N+](=O)[O-])cc2)nn(C(C)=O)c1=O | > 100 µM (inactive) | > 100 µM (inactive) | > 100 µM (inactive) | > 100 µM (inactive) | > 100 µM (inactive) | > 100 µM (inactive) |  | > 100 µM (inactive) | > 100 µM (inactive) | > 100 µM (inactive) | > 100 µM (inactive) | > 100 µM (inactive) | > 100 µM (inactive) | > 100 µM (inactive) | > 100 µM (inactive) | > 100 µM (inactive) | > 100 µM (inactive) | > 100 µM (inactive) |
| Cc1ccccc1/N=N/c1cc(C)c(/N=N/c2c(O)ccc3ccccc23)cc1C | > 100 µM (inactive) | > 100 µM (inactive) | > 100 µM (inactive) | > 100 µM (inactive) | 99.3 µM (inactive) | > 100 µM (inactive) | > 100 µM (inactive) | > 100 µM (inactive) | > 100 µM (inactive) |  | > 100 µM (inactive) | > 100 µM (inactive) | 55.8 µM (inactive) | > 100 µM (inactive) | > 100 µM (inactive) | > 100 µM (inactive) | > 100 µM (inactive) | > 100 µM (inactive) |
| CCOC(=O)C(=CNc1ccc(S(N)(=O)=O)cc1)C(=O)OCC |  | > 100 µM (inactive) | > 100 µM (inactive) | > 100 µM (inactive) | > 100 µM (inactive) | > 100 µM (inactive) | > 100 µM (inactive) | > 100 µM (inactive) | > 100 µM (inactive) | > 100 µM (inactive) | > 100 µM (inactive) | > 100 µM (inactive) | > 100 µM (inactive) | > 100 µM (inactive) | > 100 µM (inactive) | > 100 µM (inactive) | > 100 µM (inactive) | > 100 µM (inactive) |
| Cn1c2ccccc2c2c3c(c4c5ccccc5n(C)c4c21)C(=O)N(Cc1ccccc1)C3=O | > 100 µM (inactive) | > 100 µM (inactive) | 79.1 µM (inactive) | > 100 µM (inactive) | > 100 µM (inactive) | > 100 µM (inactive) | 19.3 µM (inactive) | > 100 µM (inactive) | > 100 µM (inactive) | > 100 µM (inactive) | > 100 µM (inactive) | > 100 µM (inactive) | > 100 µM (inactive) | > 100 µM (inactive) | > 100 µM (inactive) | 53.3 µM (inactive) |  | > 100 µM (inactive) |
| C=CCNC(=O)N1CC(C)C(=O)Nc2ccccc21 (stereo unspecified) |  | > 100 µM (inactive) | > 100 µM (inactive) | > 100 µM (inactive) | > 100 µM (inactive) | > 100 µM (inactive) | > 100 µM (inactive) | > 100 µM (inactive) | > 100 µM (inactive) | > 100 µM (inactive) | > 100 µM (inactive) | > 100 µM (inactive) | > 100 µM (inactive) | > 100 µM (inactive) | > 100 µM (inactive) | > 100 µM (inactive) | > 100 µM (inactive) | > 100 µM (inactive) |
| Oc1ccc(Cn2c(-c3ccc(O)c(O)c3)nc3ccccc32)cc1O |  | 27.9 µM (inactive) | 90.2 µM (inactive) | 9.64 µM (inactive) | 5.09 µM (inactive) | 11.8 µM (inactive) | 14 µM (inactive) | 10.1 µM (inactive) | 9.12 µM (inactive) | 7.45 µM (inactive) | 13.9 µM (inactive) | 24.5 µM (inactive) | 5.79 µM (inactive) | 18.6 µM (inactive) | 9.44 µM (inactive) | 11.9 µM (inactive) | 11.5 µM (inactive) | 6.59 µM (inactive) |
